Assay results reported in patent US20220096561A1, “INHIBITING OR ALLEVIATING AGENT FOR INFLAMMATION IN THE BRAIN” (NIPPON ZOKI PHARMACEUTICAL CO., LTD., priority 2019, published 2022).

Legend:
Format in all cases: cell-based, murine
[1] = system: BV-2 cell; assay: IL-1β, IL-6, TNF-α expression in LPS-treated BV-2 cells; settings: LPS + NTP, pre-treated with 10 uM ANA12 1 h before NTP, FIG. 6A-C
Protocol: (§1) Immortal BV-2 murine microglial cells, a gift from Dr. Ying Chen of Sun Yat-sen Memorial Hospital, Sun Yat-sen University were cultured as described (refer Non-Patent Document 2). BV-2 cultures were treated with 0.1 NU/mL NTP, then given lipopolysaccharides (1000 ng/mL, LotL2880, O55:B5, Sigma-Aldrich, St. Louis, Mo., USA) 12 h later.

[2] = system: BV-2 cell; assay: BDNF level in LPS-treated BV-2 cells; settings: LPS + NTP + ANA12, FIG. 6E
Protocol: as §1

[3] = system: BV-2 cell; assay: p-p65 and p-IκB-α expression in LPS-stimulated cells; settings: LPS + NTP + ANA-12, FIG. 6F-H
Protocol: as §1
Western blotting and semi-quantitative analyses were performed following previously described procedures (refer Liao W, Jiang M J, Li M, Jin C L, Xiao S H, Fan S N, Fang W L, Zheng Y Q and Liu J. Magnesium Elevation Promotes Neuronal Differentiation While Suppressing Glial Differentiation of Primary Cultured Adult Mouse Neural Progenitor Cells through ERK/CREB Activation. Frontiers in Neuroscience 2017; 11:). In brief, proteins in cerebral cortex and hippocampus were extracted with lysis buffer for 30 min, followed by centrifugation at 14,000 rpm for 15 min at […] to obtain the supernatant for western blot analysis. Primary antibodies and dilution rates used were listed as follow: NF-κB (p65), 1:1000; p-IκBα, 1:500 and β-actin, 1:1000. Primary antibodies against NF-κB (p65), p-IκBα and β-actin were purchased from Cell Signaling Technology Inc (MA, USA). […] The quantification of protein expression was analyzed by Image J (National Institutes of Health, Md., USA).

SMILES: O=C(Nc1ccccc1C(=O)NC1CCCCNC1=O)c1cc2ccccc2s1 (stereo not drawn) [ANA12]
- expression of IL-1β [1]: increased after ANA12 administration
- expression of IL-6 [1]: increased after ANA12 administration
- expression of TNF-α [1]: increased after ANA12 administration
- effect of NTP on BDNF [2]: abolished by ANA12
- activation of p-IκB-α [3]: abolished by ANA-12
- activation of p-P65 [3]: abolished by ANA-12
